# Data as given in patent US20070244097A1 (priority 2003, published 2007).
# Target: α7 nAChR subtype (Rattus norvegicus, UniProt Q05941)
# Assay type: binding
# Conditions: read-out: KD (saturation curve, one site model)
# Sequence of α7 nAChR subtype (Q05941 23-502 limits assumed): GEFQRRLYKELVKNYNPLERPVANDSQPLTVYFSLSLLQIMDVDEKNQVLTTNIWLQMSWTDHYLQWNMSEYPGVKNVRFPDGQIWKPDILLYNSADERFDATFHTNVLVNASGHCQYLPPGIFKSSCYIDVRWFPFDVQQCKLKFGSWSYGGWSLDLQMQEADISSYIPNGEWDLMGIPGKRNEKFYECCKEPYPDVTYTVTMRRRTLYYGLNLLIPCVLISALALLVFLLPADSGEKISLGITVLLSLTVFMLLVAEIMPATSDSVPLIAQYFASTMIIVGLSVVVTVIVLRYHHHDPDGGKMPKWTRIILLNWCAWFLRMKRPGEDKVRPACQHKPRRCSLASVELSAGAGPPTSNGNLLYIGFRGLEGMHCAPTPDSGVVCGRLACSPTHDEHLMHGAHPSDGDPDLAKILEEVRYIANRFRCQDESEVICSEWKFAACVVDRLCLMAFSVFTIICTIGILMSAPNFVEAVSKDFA
substance,measurement,value
^125I-α-Bungarotoxin [^125I-α-BTX],Kd,1.67 nM
